Data taken from patent publication US20260297102A1, “HETEROCYCLIC COMPOUNDS AS PARP1 INHIBITORS” (Synnovation Therapeutics, Inc., priority 2023, published 2026).

Molecular target: T1, PARP1 (Homo sapiens, UniProt P09874)
T1 construct: HeLa cells (wide-type with PARP1 gene) were purchased from ATCC; host or cells: HeLa
Test: In-Cell Western Measurement of PARylation in PARP1 WT and Knockout Cells (HeLa_WT)
Assay type: cell-based
Details: HeLa cells (wild-type PARP1); suppression of hydrogen peroxide-induced PARylation; 60 min pre-treatment, 10 mM H2O2 for 15 min; read-out: HeLa_WT_IC50
Experimental: The purpose of this cell-based assay is to measure the potency and selectivity of synthesized PARP inhibitors in suppressing hydrogen peroxide-induced PARylation in cells with and without PARP1 expression. Several cell lines were used in this assay. HeLa cells (wide-type with PARP1 gene) were purchased from ATCC. The HAP1 cell line without the PARP1 gene (#HZGHC003943c006) was purchased from Horizon Discovery. Cells were cultured using complete medium containing 10% fetal bovine serum. One day before the assay, cells were seeded in 96-well plates at the density of 20,000 cells per well in 80 uL complete medium. Compounds were dissolved using DMSO and diluted to the working concentrations using complete medium. Cells were pre-treated with compounds for 60 min and then stimulated with 10 mM hydrogen peroxide for 15 min. After stimulation, cells were immediately fixed using ice-cold methanol for 20 min. After fixation, cells were washed using 1×PBST buffer for 3 times, 5 min each time, to eliminate residual methanol. Cells were blocked for 1 h at room temperature in blocking buffer (10% goat serum, 1% BSA, 0.1% Triton X-100 in PBST). Primary antibody was diluted in blocking buffer at 50 uL per well. Cells were incubated with the primary antibody (Adipogen, AG-20T-0001-M001, 1:300) at 4° C. for 18 h. The wells were then washed using 1×PBST for 3 times, 5 min each time. IRDye® 680RD Goat anti-Mouse IgG (H+L) secondary antibody was diluted at 1/1000 using the diluent buffer and added at 50 uL per well. Secondary antibody incubation was for 1 h at room temperature. Cells were then washed using 1×PBST for 3 times, 5 min each time. The signal was detected and analyzed using LI-COR Odyssey DLx Imaging system. Data were collected and further processed using GraphPad Prism for IC50 estimation.

T1 sequence (P09874 whole entry): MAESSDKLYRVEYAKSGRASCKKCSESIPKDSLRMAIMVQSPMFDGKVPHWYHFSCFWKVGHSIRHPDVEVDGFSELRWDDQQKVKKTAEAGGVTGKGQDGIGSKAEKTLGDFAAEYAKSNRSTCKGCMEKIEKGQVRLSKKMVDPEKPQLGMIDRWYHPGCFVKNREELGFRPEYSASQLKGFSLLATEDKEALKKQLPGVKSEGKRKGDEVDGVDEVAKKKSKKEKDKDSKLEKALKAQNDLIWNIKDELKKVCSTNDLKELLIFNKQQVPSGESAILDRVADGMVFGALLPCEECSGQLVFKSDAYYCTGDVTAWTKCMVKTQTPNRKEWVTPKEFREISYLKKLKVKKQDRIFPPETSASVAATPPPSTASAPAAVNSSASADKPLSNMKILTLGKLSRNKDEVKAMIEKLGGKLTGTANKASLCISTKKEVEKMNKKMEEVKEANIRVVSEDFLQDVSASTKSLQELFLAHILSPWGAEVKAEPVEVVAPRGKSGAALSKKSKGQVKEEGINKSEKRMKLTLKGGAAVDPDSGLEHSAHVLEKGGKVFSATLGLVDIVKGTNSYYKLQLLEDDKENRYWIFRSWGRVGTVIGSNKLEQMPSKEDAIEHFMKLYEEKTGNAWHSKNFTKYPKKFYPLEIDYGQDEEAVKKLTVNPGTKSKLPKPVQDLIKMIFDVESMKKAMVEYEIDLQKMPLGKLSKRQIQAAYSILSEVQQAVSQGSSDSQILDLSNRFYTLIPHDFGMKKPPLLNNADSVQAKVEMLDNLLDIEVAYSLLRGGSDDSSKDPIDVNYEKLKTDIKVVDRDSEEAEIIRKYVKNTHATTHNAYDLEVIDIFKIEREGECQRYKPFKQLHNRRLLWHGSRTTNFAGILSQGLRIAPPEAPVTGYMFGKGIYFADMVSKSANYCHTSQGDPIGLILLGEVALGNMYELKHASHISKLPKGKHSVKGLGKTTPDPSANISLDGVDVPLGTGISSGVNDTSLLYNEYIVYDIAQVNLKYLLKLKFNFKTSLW

| IC50 [nM] | Structure (SMILES) |
| --- | --- |
| ≤ 10 | CCN1C(=O)Nc2c(F)c(CN3CCN(c4ccc(C(=O)NCCO)nc4C)CC3)cc3ncnc1c23 [Compound 7, 5-(4-((3-Ethyl-9-fluoro-2-oxo-2,3-dihydro-1H-pyrimido[4,5,6-de]quinazolin-8-yl)methyl)piperazin-1-yl)-N-(2-hydroxyethyl)-6-methylpicolinamide] |
| ≤ 10 | CCN1C(=O)Nc2cc(CN3CCN(c4ccc(C(=O)NC5(C#N)CC5)nc4C)CC3)cc3ncnc1c23 [Compound 17, N-(1-cyanocyclopropyl)-5-(4-((3-ethyl-2-oxo-2,3-dihydro-1H-pyrimido[4,5,6-de]quinazolin-8-yl)methyl)piperazin-1-yl)-6-methylpicolinamide] |
| ≤ 10 | CCN1C(=O)Nc2cc(CN3CCN(c4ccc(C(=O)NCCO)nc4C)CC3)cc3ncnc1c23 [Compound 13, 5-(4-((3-Ethyl-2-oxo-2,3-dihydro-1H-pyrimido[4,5,6-de]quinazolin-8-yl)methyl)piperazin-1-yl)-N-(2-hydroxyethyl)-6-methylpicolinamide] |
| ≤ 10 | CNC(=O)c1ccc(N2CCN(Cc3cc4ncc5c6c4c(c3F)NC(=O)N6CCC5)CC2)c(C)n1 [Compound 5, 5-(4-((7-Fluoro-5-oxo-2,3,5,6-tetrahydro-1H-[1,6]naphthyridino[1,8,7-cde]quinazolin-8-yl)methyl)piperazin-1-yl)-N,6-dimethylpicolinamide] |
| ≤ 10 | CCN1C(=O)Nc2cc(CN3CCN(c4ccc(C(=O)N[C@H]5C[C@H](O)C5)nc4C)CC3)cc3ncnc1c23 [Compound 20, 5-(4-((3-ethyl-2-oxo-2,3-dihydro-1H-pyrimido[4,5,6-de]quinazolin-8-yl)methyl)piperazin-1-yl)-N-((1r,3r)-3-hydroxycyclobutyl)-6-methylpicolinamide] |
| ≤ 10 | CCN1C(=O)Nc2c(F)c(CN3CCN(c4ccc(C(=O)NCCC#N)nc4C)CC3)cc3ncnc1c23 [Compound 8, N-(2-cyanoethyl)-5-(4-((3-ethyl-9-fluoro-2-oxo-2,3-dihydro-1H-pyrimido[4,5,6-de]quinazolin-8-yl)methyl)piperazin-1-yl)-6-methylpicolinamide] |
| ≤ 10 | CCN1C(=O)Nc2cc(CN3CCN(c4ccc(C(=O)NC5(CC#N)CC5)nc4C)CC3)cc3ncnc1c23 [Compound 26, N-(1-(cyanomethyl)cyclopropyl)-5-(4-((3-ethyl-2-oxo-2,3-dihydro-1H-pyrimido[4,5,6-de]quinazolin-8-yl)methyl)piperazin-1-yl)-6-methylpicolinamide] |
| ≤ 10 | CCN1C(=O)Nc2cc(CN3CCN(c4ccc(C(=O)N[C@H]5C[C@@H](C#N)C5)nc4C)CC3)cc3ncnc1c23 [Compound 25, N-((1s,3s)-3-cyanocyclobutyl)-5-(4-((3-ethyl-2-oxo-2,3-dihydro-1H-pyrimido[4,5,6-de]quinazolin-8-yl)methyl)piperazin-1-yl)-6-methylpicolinamide] |
| 10 to 100 | Cc1nc(C(=O)NC2CC2)ccc1N1CCN(Cc2cc3nn4c5c3c(c2F)NC(=O)N5CCC4)CC1 [Compound 2, N-Cyclopropyl-5-(4-((7-fluoro-9-oxo-2,3,8,9-tetrahydro-1H-3a,4,8,9a-tetraazacyclopenta[def]phenanthren-6-yl)methyl)piperazin-1-yl)-6-methylpicolinamide] |
| ≤ 10 | CCN1C(=O)Nc2c(F)c(CN3CCN(c4ccc(C(=O)NCC#N)nc4C)CC3)cc3ncnc1c23 [Compound 9, N-(cyanomethyl)-5-(4-((3-ethyl-9-fluoro-2-oxo-2,3-dihydro-1H-pyrimido[4,5,6-de]quinazolin-8-yl)methyl)piperazin-1-yl)-6-methylpicolinamide] |
| ≤ 10 | CCN1C(=O)Nc2cc(CN3CCN(c4ccc(C(=O)NC5CCC5)nc4C)CC3)cc3ncnc1c23 [Compound 18, N-cyclobutyl-5-(4-((3-ethyl-2-oxo-2,3-dihydro-1H-pyrimido[4,5,6-de]quinazolin-8-yl)methyl)piperazin-1-yl)-6-methylpicolinamide] |
| ≤ 10 | CCN1C(=O)Nc2cc(CN3CCN(c4ccc(C(=O)N[C@H]5C[C@H](C#N)C5)nc4C)CC3)cc3ncnc1c23 [Compound 24, N-((1r,3r)-3-cyanocyclobutyl)-5-(4-((3-ethyl-2-oxo-2,3-dihydro-1H-pyrimido[4,5,6-de]quinazolin-8-yl)methyl)piperazin-1-yl)-6-methylpicolinamide] |
| ≤ 10 | Cc1nc(C(=O)NC2CC2)ccc1N1CCN(Cc2cc3ncc4c5c3c(c2F)NC(=O)N5CCO4)CC1 [Compound 4, N-Cyclopropyl-5-(4-((6-fluoro-4-oxo-2,3,4,5-tetrahydro-1-oxa-3a,5,9-triazapyren-7-yl)methyl)piperazin-1-yl)-6-methylpicolinamide] |
| ≤ 10 | CCN1C(=O)Nc2cc(CN3CCN(c4ccc(C(=O)NC5CC5)nc4C)CC3)cc3ncnc1c23 [Compound 16, N-cyclopropyl-5-(4-((3-ethyl-2-oxo-2,3-dihydro-1H-pyrimido[4,5,6-de]quinazolin-8-yl)methyl)piperazin-1-yl)-6-methylpicolinamide] |
| ≤ 10 | CCN1C(=O)Nc2cc(CN3CCN(c4ccc(C(=O)NCC#N)nc4C)CC3)cc3ncnc1c23 [Compound 15, N-(cyanomethyl)-5-(4-((3-ethyl-2-oxo-2,3-dihydro-1H-pyrimido[4,5,6-de]quinazolin-8-yl)methyl)piperazin-1-yl)-6-methylpicolinamide] |
| ≤ 10 | CCN1C(=O)Nc2cc(CN3CCN(c4ccc(C(=O)N[C@H]5[C@@H]6COC[C@@H]65)nc4C)CC3)cc3ncnc1c23 [Compound 21, N-((1R,5S,6r)-3-oxabicyclo[3.1.0]hexan-6-yl)-5-(4-((3-ethyl-2-oxo-2,3-dihydro-1H-pyrimido[4,5,6-de]quinazolin-8-yl)methyl)piperazin-1-yl)-6-methylpicolinamide] |
| ≤ 10 | CNC(=O)c1ccc(N2CCN(Cc3cc4ncc5c6c4c(c3F)NC(=O)N6CCO5)CC2)c(C)n1 [Compound 3, 5-(4-((6-Fluoro-4-oxo-2,3,4,5-tetrahydro-1-oxa-3a,5,9-triazapyren-7-yl)methyl)piperazin-1-yl)-N,6-dimethylpicolinamide] |
| ≤ 10 | CCN1C(=O)Nc2cc(CN3CCN(c4ccc(C(=O)N[C@H]5C[C@@H](O)C5)nc4C)CC3)cc3ncnc1c23 [Compound 19, 5-(4-((3-ethyl-2-oxo-2,3-dihydro-1H-pyrimido[4,5,6-de]quinazolin-8-yl)methyl)piperazin-1-yl)-N-((1s,3s)-3-hydroxycyclobutyl)-6-methylpicolinamide] |
| 10 to 100 | CNC(=O)c1ccc(N2CCN(Cc3cc4nn5c6c4c(c3F)NC(=O)N6CCC5)CC2)c(C)n1 [Compound 1, 5-(4-((7-Fluoro-9-oxo-2,3,8,9-tetrahydro-1H-3a,4,8,9a-tetraazacyclopenta[def]phenanthren-6-yl)methyl)piperazin-1-yl)-N,6-dimethylpicolinamide] |
| ≤ 10 | CCN1C(=O)Nc2cc(CN3CCN(c4ccc(C(=O)NCCC#N)nc4C)CC3)cc3ncnc1c23 [Compound 14, N-(2-cyanoethyl)-5-(4-((3-ethyl-2-oxo-2,3-dihydro-1H-pyrimido[4,5,6-de]quinazolin-8-yl)methyl)piperazin-1-yl)-6-methylpicolinamide] |
| ≤ 10 | CCN1C(=O)Nc2c(F)c(CN3CCN(c4ccc(C(=O)N[C@H]5C[C@H](O)C5)nc4C)CC3)cc3ncnc1c23 [Compound 10, 5-(4-((3-Ethyl-9-fluoro-2-oxo-2,3-dihydro-1H-pyrimido[4,5,6-de]quinazolin-8-yl)methyl)piperazin-1-yl)-N-((1r,3r)-3-hydroxycyclobutyl)-6-methylpicolinamide] |
| ≤ 10 | Cc1nc(C(=O)NC2CC2)ccc1N1CCN(Cc2cc3ncc4c5c3c(c2F)NC(=O)N5CCC4)CC1 [Compound 6, N-Cyclopropyl-5-(4-((7-fluoro-5-oxo-2,3,5,6-tetrahydro-1H-[1,6]naphthyridino[1,8,7-cde]quinazolin-8-yl)methyl)piperazin-1-yl)-6-methylpicolinamide] |
